Data from BindingDB's records for patent WO2025049746 (Eikon Therapeutics, 2025).
pIC50: −log10 of the molar value.

Tests used:
[1] = biological target: Bifunctional 3'-5' exonuclease/ATP-dependent helicase WRN (Homo sapiens, UniProt Q14191); experiment: ADP-Glo Kinase Assay
Procedure: ATPase activity was measured using the ADP-Glo Kinase Assay following the manufacturers recommended protocol.

[2] = biological target: T1, Bifunctional 3'-5' exonuclease/ATP-dependent helicase WRN [480-1251] (UniProt Q14191); experiment: Biochemical Activity Assays
T1 construct: 480-1251
T1 sequence (Q14191 480-1251): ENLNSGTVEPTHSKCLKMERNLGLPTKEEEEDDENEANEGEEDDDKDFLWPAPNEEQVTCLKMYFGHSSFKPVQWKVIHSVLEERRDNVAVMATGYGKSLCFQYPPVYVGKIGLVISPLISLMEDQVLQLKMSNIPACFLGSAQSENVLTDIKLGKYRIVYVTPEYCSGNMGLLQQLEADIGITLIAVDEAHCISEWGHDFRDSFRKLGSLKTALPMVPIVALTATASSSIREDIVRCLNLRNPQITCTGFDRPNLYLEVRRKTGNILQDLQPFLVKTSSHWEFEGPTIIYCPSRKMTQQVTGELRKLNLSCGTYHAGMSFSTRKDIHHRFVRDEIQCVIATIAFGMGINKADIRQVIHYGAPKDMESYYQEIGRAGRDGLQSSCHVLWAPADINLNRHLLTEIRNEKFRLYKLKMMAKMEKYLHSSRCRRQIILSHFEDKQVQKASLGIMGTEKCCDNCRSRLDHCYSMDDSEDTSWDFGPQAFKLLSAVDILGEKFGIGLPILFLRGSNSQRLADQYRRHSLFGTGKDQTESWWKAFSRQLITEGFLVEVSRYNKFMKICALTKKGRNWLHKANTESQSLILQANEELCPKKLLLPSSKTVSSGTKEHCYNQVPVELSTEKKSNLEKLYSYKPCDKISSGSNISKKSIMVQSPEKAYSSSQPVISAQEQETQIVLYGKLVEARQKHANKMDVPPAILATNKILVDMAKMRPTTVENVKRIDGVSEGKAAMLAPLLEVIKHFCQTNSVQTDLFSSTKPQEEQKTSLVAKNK

Sequence of Bifunctional 3'-5' exonuclease/ATP-dependent helicase WRN (Q14191 whole entry): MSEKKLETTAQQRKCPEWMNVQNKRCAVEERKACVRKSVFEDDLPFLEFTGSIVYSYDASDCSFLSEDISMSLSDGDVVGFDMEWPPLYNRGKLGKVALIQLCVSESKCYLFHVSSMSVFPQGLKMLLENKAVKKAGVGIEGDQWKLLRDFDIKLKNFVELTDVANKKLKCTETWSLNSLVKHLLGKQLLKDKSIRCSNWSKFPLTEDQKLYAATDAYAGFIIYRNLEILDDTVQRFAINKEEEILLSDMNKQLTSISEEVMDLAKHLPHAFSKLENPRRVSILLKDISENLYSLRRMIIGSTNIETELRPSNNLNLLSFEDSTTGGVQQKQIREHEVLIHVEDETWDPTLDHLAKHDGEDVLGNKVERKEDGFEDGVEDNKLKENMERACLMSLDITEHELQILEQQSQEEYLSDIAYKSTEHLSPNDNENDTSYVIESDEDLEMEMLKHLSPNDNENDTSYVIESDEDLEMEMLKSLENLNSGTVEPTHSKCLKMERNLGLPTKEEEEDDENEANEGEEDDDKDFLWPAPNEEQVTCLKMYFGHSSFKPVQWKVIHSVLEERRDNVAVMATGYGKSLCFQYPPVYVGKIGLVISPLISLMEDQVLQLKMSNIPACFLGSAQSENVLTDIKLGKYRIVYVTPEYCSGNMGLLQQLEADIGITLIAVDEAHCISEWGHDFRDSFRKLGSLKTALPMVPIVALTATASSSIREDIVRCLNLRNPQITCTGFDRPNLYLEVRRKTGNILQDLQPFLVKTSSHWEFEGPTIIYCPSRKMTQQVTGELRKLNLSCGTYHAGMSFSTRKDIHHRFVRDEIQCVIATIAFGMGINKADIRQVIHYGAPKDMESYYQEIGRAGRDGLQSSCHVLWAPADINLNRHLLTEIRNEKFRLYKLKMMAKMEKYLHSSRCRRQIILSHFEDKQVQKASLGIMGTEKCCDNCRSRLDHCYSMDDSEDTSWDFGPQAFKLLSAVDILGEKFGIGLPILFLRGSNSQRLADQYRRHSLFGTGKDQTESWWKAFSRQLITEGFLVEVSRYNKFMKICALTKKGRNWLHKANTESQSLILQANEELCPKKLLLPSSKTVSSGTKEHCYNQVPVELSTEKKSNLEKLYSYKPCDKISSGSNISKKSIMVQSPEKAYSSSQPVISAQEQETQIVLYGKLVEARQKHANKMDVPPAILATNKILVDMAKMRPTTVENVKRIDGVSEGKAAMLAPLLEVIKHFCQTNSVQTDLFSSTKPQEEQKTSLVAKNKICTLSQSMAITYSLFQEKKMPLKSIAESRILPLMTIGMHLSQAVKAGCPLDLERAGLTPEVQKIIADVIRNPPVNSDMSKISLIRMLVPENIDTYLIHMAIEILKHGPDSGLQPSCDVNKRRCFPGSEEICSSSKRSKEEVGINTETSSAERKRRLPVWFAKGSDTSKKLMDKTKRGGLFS

`CCc1c(N2CCN(C(=O)c3ncnc(C)c3O)CC2)c(=O)n2c(CO)c(-c3ccc4c(c3)COC4)nc2n1CC(=O)Nc1ccc(C(F)(F)F)cc1Cl` [WO2025049746, Example 452] was tested, and the pIC50 [1] was 5.01 and the pIC50 [2] was 4.53.
`CCc1c(N2CCN(C(=O)c3ncnc(C)c3O)C[C@@H]2C)c(=O)n2nc(-c3ccc4c(c3)COC4(C)C)nc2n1CC(=O)Nc1ccc(C(F)(F)F)cc1Cl` [WO2025049746, Example 453] gave a pIC50 [1] of 7.41 and a pIC50 [2] of 7.30.
In the case of `CCc1c(N2CCN(C(=O)c3nccc4cc[nH]c34)CC2)c(=O)n2nc(-c3ccc4c(c3)COC4(C)C)nc2n1CC(=O)Nc1ccc(C(F)(F)F)cc1Cl` [WO2025049746, Example 454], the pIC50 [1] was 6.31 and the pIC50 [2] was 6.43.
Work on `CCc1c(N2CCN(C(=O)c3ccnc(C)c3O)CC2)c(=O)n2nc(-c3ccc4c(c3)COC4(C)C)nc2n1CC(=O)Nc1ccc(C(F)(F)F)cc1Cl` [WO2025049746, Example 455] yielded a pIC50 [1] of 7.40 and a pIC50 [2] of 7.32.
With `CCc1c(N2CCN(C(=O)c3nccc4nc[nH]c34)CC2)c(=O)n2nc(-c3ccc4c(c3)COC4(C)C)nc2n1CC(=O)Nc1ccc(C(F)(F)F)cc1Cl` [WO2025049746, Example 456] the pIC50 [1] was 7.24 and the pIC50 [2] was 7.26.
With `CCc1c(N2CCN(C(=O)c3ncnc(C)c3O)[C@H](C)C2)c(=O)n2nc(-c3ccc4c(c3)COC4(C)C)nc2n1CC(=O)Nc1ccc(C(F)(F)F)cc1Cl` [WO2025049746, Example 457] the pIC50 [1] was 7.41 and the pIC50 [2] was 7.40.
`CCc1c(N2CCN(C(=O)c3ncnc(C)c3O)[C@H]3CC[C@@H]32)c(=O)n2nc(-c3ccc4c(c3)COC4(C)C)nc2n1CC(=O)Nc1ccc(C(F)(F)F)cc1Cl` [WO2025049746, Example 458] showed a pIC50 [1] of 7.05 and a pIC50 [2] of 7.03.
`CCc1c(N2CCN(C(=O)c3ncnc(C)c3O)[C@@H]3CC[C@@H]32)c(=O)n2nc(-c3ccc4c(c3)COC4(C)C)nc2n1CC(=O)Nc1ccc(C(F)(F)F)cc1Cl` [WO2025049746, Example 459] showed a pIC50 [1] of 7.04 and a pIC50 [2] of 7.09.
Work on `CCc1c(N2CCN(C(=O)c3ncnc(C)c3O)[C@H]3CC[C@H]32)c(=O)n2nc(-c3ccc4c(c3)COC4(C)C)nc2n1CC(=O)Nc1ccc(C(F)(F)F)cc1Cl` [WO2025049746, Example 460] yielded a pIC50 [1] of 7.28 and a pIC50 [2] of 7.35.
With `CCc1c(N2CC[C@@H](C)N(C(=O)c3ncnc(C)c3O)CC2)c(=O)n2nc(-c3ccc4c(c3)COC4(C)C)nc2n1CC(=O)Nc1ccc(C(F)(F)F)cc1Cl` [WO2025049746, Example 461] the pIC50 [1] was 7.35 and the pIC50 [2] was 7.30.
In the case of `CCc1c(N2CCN(C(=O)c3nc4n(c(=O)c3O)CCOC4)CC2)c(=O)n2nc(-c3ccc4c(c3)COC4(C)C)nc2n1CC(=O)Nc1ccc(C(F)(F)F)cc1Cl` [WO2025049746, Example 462], the pIC50 [1] was 7.45 and the pIC50 [2] was 7.40.
Compound `CCc1c(N2CCN(C(=O)c3nc4c(cc3O)CCOC4)CC2)c(=O)n2nc(-c3ccc4c(c3)COC4(C)C)nc2n1CC(=O)Nc1ccc(C(F)(F)F)cc1Cl` [WO2025049746, Example 463] has a pIC50 [1] of 7.15 and a pIC50 [2] of 7.07.
For `CCc1c(N2CCN(C(=O)c3nc4c(cc3OCc3ccc(OC)cc3)COCC4)CC2)c(=O)n2nc(-c3ccc4c(c3)COC4(C)C)nc2n1CC(=O)Nc1ccc(C(F)(F)F)cc1Cl` [WO2025049746, Example 464], the pIC50 [1] was 7.17 and the pIC50 [2] was 7.08.
`Cc1ncnc(C(=O)N2CCN(c3c4n(c5nc(-c6ccc7c(c6)COC7(C)C)nn5c3=O)[C@@H](C(=O)Nc3ccc(C(F)(F)F)cc3Cl)C[C@H]4C)[C@H]3CC[C@@H]32)c1O` [WO2025049746, Example 465] gave a pIC50 [1] of 7.54 and a pIC50 [2] of 7.50.
Work on `Cc1ncnc(C(=O)N2CCN(c3c4n(c5nc(-c6ccc7c(c6)COC7(C)C)nn5c3=O)[C@@H](C(=O)Nc3ccc(C(F)(F)F)cc3Cl)C[C@@H]4C)[C@H]3CC[C@@H]32)c1O` [WO2025049746, Example 466] yielded a pIC50 [1] of less than 4.53 and a pIC50 [2] of 5.03.
`Cc1ncnc(C(=O)N2CCN(c3c4n(c5nc(-c6ccc7c(c6)COC7(C)C)nn5c3=O)[C@H](C(=O)Nc3ccc(C(F)(F)F)cc3Cl)C[C@H]4C)[C@H]3CC[C@@H]32)c1O` [WO2025049746, Example 467] was tested, and the pIC50 [1] was less than 4.53 and the pIC50 [2] was 5.02.
`Cc1ncnc(C(=O)N2CCN(c3c4n(c5nc(-c6ccc7c(c6)COC7(C)C)nn5c3=O)[C@H](C(=O)Nc3ccc(C(F)(F)F)cc3Cl)C[C@@H]4C)[C@H]3CC[C@@H]32)c1O` [WO2025049746, Example 468] showed a pIC50 [1] of 7.42 and a pIC50 [2] of 7.37.
`Cc1ncnc(C(=O)N2CCN(c3c4n(c5nc(-c6ccc7c(c6)COC7(C)C)nn5c3=O)[C@H](C(=O)Nc3ccc(C(F)(F)F)cc3Cl)C[C@H]4C)CC2)c1O` [WO2025049746, Example 469] gave a pIC50 [1] of 7.59 and a pIC50 [2] of 7.56.
Compound `Cc1ncnc(C(=O)N2CCN(c3c4n(c5nc(-c6ccc7c(c6)COC7(C)C)nn5c3=O)[C@@H](C(=O)Nc3ccc(C(F)(F)F)cc3Cl)C[C@H]4C)CC2)c1O` [WO2025049746, Example 470] has a pIC50 [1] of 7.49 and a pIC50 [2] of 7.46.
Work on `Cc1ncnc(C(=O)N2CCN(c3c4n(c5nc(-c6ccc7c(c6)COC7(C)C)nn5c3=O)[C@H](C(=O)Nc3ccc(C(F)(F)F)cc3Cl)C[C@@H]4C)CC2)c1O` [WO2025049746, Example 471] yielded a pIC50 [1] of 5.75 and a pIC50 [2] of 5.74.
For `Cc1ncnc(C(=O)N2CCN(c3c4n(c5nc(-c6ccc7c(c6)COC7(C)C)nn5c3=O)[C@@H](C(=O)Nc3ccc(C(F)(F)F)cc3Cl)C[C@@H]4C)CC2)c1O` [WO2025049746, Example 472], the pIC50 [1] was 5.43 and the pIC50 [2] was 5.31.
